{
  "source": "paper PMC10099666",
  "about": "“Structure Elucidation, Total Synthesis, Antibacterial In Vivo Efficacy and Biosynthesis Proposal of Myxobacterial Corramycin” (Angewandte Chemie (International Ed. in English), 2022)",
  "key": {"[1]": {"tested_on": "Klebsiella pneumoniae 1705966", "assay_type": "cell-based", "conditions": "strain 1705966; CAMHB, CLSI/EUCAST broth microdilution, 5x10^5 CFU mL-1, 20-22 h, duplicates", "procedure": "(§1) 5. Determination of the minimal inhibitory concentration (MIC) in vitro The MIC of Corramycin was evaluated following the Clinical & Laboratory Standard Institute (CLSI; https://clsi.org) and EUCAST (https://eucast.org) guidelines. First, inoculi of the bacterial test strains were prepared by culturing isolated colonies in cation-adjusted Müller Hinton broth (CAMHB; 2 g L-1 beef infusion solids, 1.5 g L-1 starch, 17.5 g L-1 casein hydrolysates, final pH 7.4) at 37 °C and 180 rpm for 18 h. Next, Corramycin, which was dissolved in DMSO, was transferred into the first row of a 96-well plate to reach an end concentration of 64 µg mL-1 (in 100 µL total volume). A 1:1 serial dilution in cation-adjusted Mueller Hinton broth (CAMHB) of the test compound was done from the top row to the bottom row of the 96-well plate to reach an end concentration of 0.125 µg mL-1 in the bottom row. Afterwards, the respective test strains were transferred into the wells, reaching a total volume of 100 µL and 5x10^5 colony-forming units (CFU) mL-1. After a 20 to 22 h of incubation, the optical density was evaluated on a microplate reader and the MIC endpoint was determined as the lowest concentration of antibiotic at which there was no visible growth observed. Each MIC experiment was performed in duplicates. Table S 4 depicts the MIC values of Corramycin against all bacterial strains tested in this study. […]"}, "[2]": {"tested_on": "Salmonella typhimurium ATCC13311", "assay_type": "cell-based", "conditions": "strain ATCC13311; CAMHB, CLSI/EUCAST broth microdilution, 5x10^5 CFU mL-1, 20-22 h, duplicates", "procedure": "as §1"}, "[3]": {"tested_on": "Enterococcus faecalis 1069 VanB", "assay_type": "cell-based", "procedure": "as §1"}, "[4]": {"tested_on": "mice infected with E. coli ATCC35218", "assay_type": "in vivo", "conditions": "i.v. 20 mg kg^−1 Corramycin in E. coli mouse infection model", "procedure": "As bacterial resistance development in minimal media is thought to be more mimetic to an actual infection in vivo, we decided to test the in vivo efficacy of Corramycin in infected mice, despite the poor FoR experiment results in the rich medium. The mice were first infected intraperitoneally with E. coli ATCC35218 and subsequently treated with different doses of Corramycin ranging from a total of 10 to 30 mg per kg body weight divided into two doses, 1 hour and 3 hours after infection.\nFigure 4 In vivo antibacterial activity of Corramycin in infected mice. A) Colony forming unit (CFU) load of E. coli ATCC35218 in blood 4 hours post infection with 2.10^7 CFU. 5 mice per dose were used. […]; Tienam: Imipenem/Cilastatin treatment (positive control, dark grey bar); Corramycin treatment with different doses (light blue, blue and dark blue bars). B) Survival rate [in %] of 10 mice per dose 3, 6, 24, 48, 72 and 96 hours post infection.\n13.2 Complementation of SbmA and YejEF in the E. coli deletion mutant […]\n14.1 Infection of the test animals and treatment with Corramycin in vivo For the in vivo infection and antibiotic treatment experiments a total of 75 male Swiss albino mice, divided into five groups with 15 animals, were used. Before infecting the test animals, the weight of each animal was determined (Suppl. Raw Data 1). […]"}},
  "note": "*1 amine or outer side, *2 acyl side, *3 side chain or, on linkers, in order; H or OH if unused. Where a SMILES comes first, the peptide text is derived from it. [ ]: non-standard residue; d: D form. The star is where a group is joined. Ava(2S,3R-(OH)2,4S-OMe) = CO[C@@H](CN[*:1])[C@H](O)[C@H](O)C(=O)[*:2]; dHis(βS-OH,π-Me) = Cn1cncc1[C@@H](O)[C@@H](N)C(=O)O; Butanoyl(2R-OH,3S-OH) = C[C@H](O)[C@@H](O)C(=O)*; Val(3-OH) = CC(C)(O)[C@H](N)C(=O)O; NMeF = CN[C@@H](Cc1ccccc1)C(=O)O",
  "data": [
    {"smiles": "CO[C@@H](CNC(=O)[C@H](NC(=O)[C@H](O)[C@H](C)O)[C@H](O)c1cncn1C)[C@H](O)[C@H](O)C(=O)N(C)[C@@H](Cc1ccccc1)C(=O)NCC(=O)N[C@H](C(=O)N[C@@H](CO)C(=O)N[C@H](C(=O)N[C@@H](CC(C)C)C(=O)N[C@@H](CO)C(=O)O)C(C)(C)O)C(C)(C)O", "note": "[Corramycin] ({Butanoyl(2R-OH,3S-OH)}-[dHis(βS-OH,π-Me)][Ava(2S,3R-(OH)2,4S-OMe)][NMeF]G[Val(3-OH)]S[Val(3-OH)]LS-OH)", "values": [
      {"measurement": "MIC", "setting": "[1]", "value": ">64", "unit": "µg/mL"},
      {"measurement": "MIC", "setting": "[2]", "value": 4, "unit": "µg/mL"},
      {"measurement": "MIC", "setting": "[3]", "value": 16, "unit": "µg/mL"},
      {"measurement": "Toxic side effects in mice", "setting": "[4]", "value": "without toxic side effects"},
      {"measurement": "Cytotoxicity", "setting": "mammalian cell lines", "value": "no cytotoxicity"}
    ]}
  ]
}
